According to patent US6231894A, “Treatments based on discovery that nitric oxide synthase is a paraquat diaphorase” (Duke University, priority 1999, dated 2001):

Columns and labels:
[1] = Therapeutic use of NO-derivatized L-NAME variant; type: in vivo; conditions: nitrite ester variant
Description: The invention is explained and illustrated by the following background examples and working examples. In the examples the NO-derivatized LNAME is the compound of formula (I) where R^3 is CH3 and R^1 is --(CH2)2 --ONO2. This compound is made by starting with N^ω -nitro-α-(2-hydroxyethyl)-L-arginine made as described above, forming the tert-butyloxycarbonyl derivative, dissolving in methanol, adding […], using non-aqueous trifluoroacetic acid to remove the protecting group and converting to the nitrate ester.

[2] = tested on: solid tumor; test: Working Example VII: solid tumor patient; type: in vivo, human; conditions: treatment for seven days
Description: A person is given the anti-tumor agent 5,6 dimethylxanthemone-4-acetic acid (5,6 MEXAA) to treat a solid tumor identified by biopsy on the left lower extremity, and lung. […] At this time, the patient is treated with intravenous infusion of paraquat (4 milligram per kilogram) for seven cycles.

[3] = Working Example X: embolic stroke patient; type: in vivo, human; conditions: 10 mg IV bolus followed by 4.5 mg per kilogram per minute; L-NMMA 30 minutes, L-NAME following day
Description: A person with middle cerebral arterial embolic stroke presents to the Emergency Room unconscious. […] After 30 minutes the therapy is stopped and they receive L-NAME at the same dose.

[4] = tested on: Rabbit aortic rings; test: Acetylcholine-induced (EDRF) relaxation of aortic rings; conditions: Oryctolagus cuniculus; L-NAME (2 mM), acetylcholine, phenylephrine 1 μM; FIG. 3(a); read-out: inhibition of the relaxation response
Description: Rabbit aortic rings were treated with increasing concentrations of paraquat or L-NAME (2 mM) prior to initiating a constriction response with 1 μM phenylephrine (initial contraction).
(§1) New Zealand white male rabbits weighting 3-4 kg were anaesthetized with phenobarbital (30 mg/kg/iv). The descending thoracic aorta was isolated and placed in Krebs-Henseleit buffer (pH 7.4) and stored at 4° C. until used. The vessels were cut into 5 mm rings and submerged in 25 ml double jacketed tissue baths containing Krebs-Henseleit buffer bubbled with 95% oxygen and 5% carbon dioxide at 37° C. Rings were hung on stainless steel stirrups connected to calibrated force transducers. Rings were equilibrated with 2 g resting tension for 1 hour before use and contracted with phenylephrine (1 μM). Rings were incubated with paraquat for 15 minutes before acetylcholine-induced or exogenous relaxations were performed.
Endothelial-derived relaxing factor (EDRF) responses were initiated by addition of acetylcholine.

[5] = Working Example I: patient exposed to paraquat; type: in vivo, human; conditions: L-NAME IV 0.1 mg per kilogram per minute
Description: A person presents complaining of shortness of breath after working with paraquat. […] An intravenous line is inserted and the patient is started on IV infusion of 0.1 mg per kilogram per minute L-NAME. […] Over the following two days they are weaned off L-NAME.

[6] = tested on: CPA-47 endothelial cell line; test: LDH release from endothelial cells (cytotoxicity); type: cell-based; conditions: increasing inhibitor concentrations with 2 mM paraquat, 24 hours; FIG. 2(b)
Description: To test whether the above effect was present in intact cells, endothelial cell cultures, constitutively expressing NOS3 protein as determined by western blot analysis, were treated with 2 mM paraquat in the presence of increasing concentrations of either L-NAME or L-NMMA.
The endothelial cells were obtained as follows: CPA-47 endothelial cell line (CRL-1733) was purchased from American Type Culture Collection (Manassas, Va.). Endothelial cells were grown in T-75 flasks containing Ham's F-12 K medium supplemented by 1 mM […] and 10% equine serum (Gibco-BRL, Grand Island, N.Y.). Endothelial cells were plated at 3.5×10^4 cells/well in 24-well plates and experiments were performed 48 hours later when cells were near confluence. Medium was changed to minimal essential medium without serum supplement. Endothelial cells were from passages 30-36.
Cytotoxicity was measured as the percent release of LDH and compared to vehicl-treated cells (basal). The percent release of cytosolic lactate dehydrogenase (LDH) into the culture medium was used to assess the integrity of the cell membrane. LDH activity was measured by following the loss of NADH at 340 nm as described in Day, B. J., et al., J. Pharmacol. Exp. Ther. 275, 1227-1232 (1995). The percent release of LDH into the culture medium 24 hours after the paraquat treatment was used to assess cell injury.

[7] = Working Example IX: breast cancer patient with adriamycin toxicity; type: in vivo, human
Description: A person with metastatic breast cancer receives adriamycin in the standard regimen. […] They are begun on the nitric oxide synthase inhibitor L-NAME 0.5 milligrams per kilogram per minute and their systolic blood pressure is then titrated to 100-120 mm Hg. Over the following two weeks, their ejection fraction improves to 50% and the drug is stopped.

[8] = target: T1, Recombinant rat neuronal nitric oxide synthase (NOS1) (Rattus norvegicus, UniProt P29476); test: NADPH oxidation (paraquat diaphorase activity) by recombinant rat neuronal nitric oxide synthase; type: biochemical; conditions: NOS inhibitor 1 mM, FIG. 2(a); for effect on paraquat-stimulated NADPH oxidation: 25 μM paraquat; for effect on basal NADPH oxidation: no paraquat
T1 construct: purchased Oxis, Portland, Oreg
T1 sequence (P29476 whole entry): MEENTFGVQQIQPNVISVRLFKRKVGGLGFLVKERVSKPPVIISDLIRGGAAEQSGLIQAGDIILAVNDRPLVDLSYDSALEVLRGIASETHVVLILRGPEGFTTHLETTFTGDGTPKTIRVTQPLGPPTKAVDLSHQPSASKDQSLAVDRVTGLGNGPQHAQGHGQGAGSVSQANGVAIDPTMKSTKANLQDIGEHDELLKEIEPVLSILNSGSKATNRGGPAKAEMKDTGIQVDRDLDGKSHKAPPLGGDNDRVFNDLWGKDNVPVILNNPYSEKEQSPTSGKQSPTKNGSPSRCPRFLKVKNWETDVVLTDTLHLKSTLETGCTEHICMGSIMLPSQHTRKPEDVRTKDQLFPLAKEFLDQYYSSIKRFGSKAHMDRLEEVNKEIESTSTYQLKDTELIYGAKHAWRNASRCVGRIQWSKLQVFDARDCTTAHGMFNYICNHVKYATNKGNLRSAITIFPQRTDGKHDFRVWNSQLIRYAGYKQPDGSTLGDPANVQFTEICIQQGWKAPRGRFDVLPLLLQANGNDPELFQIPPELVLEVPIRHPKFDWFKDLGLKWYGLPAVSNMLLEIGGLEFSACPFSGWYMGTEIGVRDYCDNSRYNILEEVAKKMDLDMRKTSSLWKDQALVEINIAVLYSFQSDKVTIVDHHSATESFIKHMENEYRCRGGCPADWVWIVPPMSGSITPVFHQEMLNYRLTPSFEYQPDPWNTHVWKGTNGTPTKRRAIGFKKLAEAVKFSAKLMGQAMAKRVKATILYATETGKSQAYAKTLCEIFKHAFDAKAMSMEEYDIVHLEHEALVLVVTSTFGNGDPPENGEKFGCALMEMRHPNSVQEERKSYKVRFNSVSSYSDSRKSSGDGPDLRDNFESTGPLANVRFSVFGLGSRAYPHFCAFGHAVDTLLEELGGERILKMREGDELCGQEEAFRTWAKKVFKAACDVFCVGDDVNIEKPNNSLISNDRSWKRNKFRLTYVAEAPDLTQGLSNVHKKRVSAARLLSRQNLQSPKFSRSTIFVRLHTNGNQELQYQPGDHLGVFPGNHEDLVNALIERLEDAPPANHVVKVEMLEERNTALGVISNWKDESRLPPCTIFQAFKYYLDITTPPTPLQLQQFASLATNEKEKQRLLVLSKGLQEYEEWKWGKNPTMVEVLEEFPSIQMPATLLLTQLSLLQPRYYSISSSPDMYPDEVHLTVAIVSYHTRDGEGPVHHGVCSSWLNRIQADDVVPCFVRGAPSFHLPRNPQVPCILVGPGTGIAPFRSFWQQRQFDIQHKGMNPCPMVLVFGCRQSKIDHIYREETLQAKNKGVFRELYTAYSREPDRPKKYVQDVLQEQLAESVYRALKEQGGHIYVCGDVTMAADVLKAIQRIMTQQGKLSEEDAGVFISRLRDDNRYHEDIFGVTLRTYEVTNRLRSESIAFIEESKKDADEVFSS
Description: Recombinant rat neuronal nitric oxide synthase (NOS1, Oxis, Portland, Oreg.), a constitutive enzyme, was used to assay NADPH oxidation in the presence of increasing concentrations of paraquat. Reactions (0.2 ml) were performed in bis-tris propane buffer (40 mM) containing L-arginine (1 mM), CaCl2 (1.2 mM), EDTA (0.9 mM), NADPH (0.35 mM), dithiothreitol (3 mM), tetrahydrobiopterin (4 μM), catalase (1 μg/ml) and calmodulin (200 U/ml) at pH 7.4. Reactions were initiated by the addition of 1.5 U of NOS1, and the oxidation of NADPH was continuously monitored at 340 nm for 1 minute at 37° C. in a plate reader. The rate of NOS-mediated NADPH oxidation was determined using an extinction coefficient of 6.22 mM^-1 cm^-1 after subtracting the baseline of NADPH oxidation.
The experiment of Background Example 1 for NADPH oxidation was carried out in the presence and absence of 25 μM paraquat, without any NOS inhibitor (control), in the presence of L-NAME (1 mM) or in the presence of 1 mM L-NMMA. […] Only L-NAME shut down the NADPH oxidase activity.

[9] = Working Example III: stroke patient; type: in vivo, human
Description: A person presents with confusion and weakness in the left arm. […] The L-NAME is stopped and the patient is given an NO derivatized L-NAME compound at 0.1 milligram per kilogram per minute IV which lowers the blood pressure to 170/100.

[10] = Working Example IV: patient with E. Coli bacteremia; type: in vivo, human
Description: A person with E. Coli bacteremia presents with a fever of 101° F. and a blood pressure of 70/50. […] The drug is stopped and they are begun on NO-derivatized L-NAME at 0.1 mg/kg/minute. […] Blood pressure rises to 100/80.

[11] = Working Example XIV: congestive heart failure and COPD patient; type: in vivo, human; conditions: 10 milligram per kilogram IV bolus and IV drip 0.5 milligrams per kilograms per minute
Description: A patient with congestive heart failure and COPD presents acutely short of breath. They are intubated for respiratory failure. […] Their FEV1 is 0.8. The patient has a protracted hospital course and attempts to wean them from the ventilator are unsuccessful. They are then started on 10 milligram per kilogram IV bolus of L-NMMA and an intravenous drip at 0.5 milligrams per kilograms per minute.

[12] = tested on: breast cancer; test: Working Examples XI and XII: breast cancer patient; type: in vivo, human
Description: A person presents with breast cancer and is treated with standard regimen including adriamycin. […] They are given an infusion of a temperature-sensitive liposome encapsulated nitric oxide synthase, which is released in to the tumor by local heat (40-42° centigrate).
The adriamycin infusion in Example X after liposome encapsulated nitric oxide synthase treatment is replaced by 2 mg per day of diquat for six days.

[13] = tested on: RAW-264.7 monocyte macrophage cells; test: LDH release from macrophages (cytotoxicity); type: cell-based; conditions: conclusion of Background Example 4
Description: The RAW-264.7 monocyte macrophage cells line (TIB-71) was purchased from the American Type Culture Collection (Manassas, Va.). The cells were grown in T-75 flasks containing DMEM (Gibco-BRL, Grand Island, N.Y.) supplemented with 1 mM pyruvate, 4.5 g/L glucose and […] fetal bovine serum Macrophages were plated at 2.0×10^4 cells/well in 24-well plates and experiments were performed when cells were near confluence. Macrophages were immunostimulated with 50 ng/ml lipopolysaccharide (LPS) from E. coli serotype 0111:B4 (Signia, St. Louis, Mo.) and 50 U/ml recombinant mouse interferon gamma (INF-γ, R&D Systems, Minneapolis,Minn.). Macrophages were used between passages 2-8. Cell cultures were kept in a 37° C. incubator with air and 5% carbon dioxide.
NOS2 was induced in RAW cells using a mixture of interferon-γ and lipopolysaccharide (LPS) referred to as "cytomix." Unstimulated (basal) and activated (cytomix) macrophages were treated with 0.1 mM paraquat or not treated with paraquat and cytotoxicity and NO production were assessed at 24 hours.
Cell injury was assessed by measuring LDH release.
To further exclude the role of peroxynitrite, macrophages were treated with increasing concentrations of the NO-donor, DETA NONOate in the presence of 0.1 mM paraquat. Macrophage cytotoxicity and NO release were assessed 24 hours after treatments. Cell injury was assessed by measuring LDH release.

[14] = tested on: Rabbit aortic rings; test: Exogenous NO-induced relaxation of aortic rings; conditions: 2 mM paraquat, phenylephrine 1 μM; FIG. 3(b)
Description: as §1
In another case, rabbit aortic rings were constricted with 1 μM phenylephrine (initial contraction) and relaxed with increasing concentration of NO in the presence or absence of 2 mM paraquat. The results are shown in FIG. 3(b) where relaxations are expressed as a percent of the initial phenylephrine-induced contraction.

[15] = 0.1 milligram per kilogram per minute IV
[16] = 0.1 mg/kg/minute, after L-NMMA stopped

## COC(=O)[C@@](N)(CCCNC(=N)N[N+](=O)[O-])CCON=O
[1]
  therapeutic results: Therapeutic results are also obtained

## Cc1ccc2c(=O)c3cccc(CC(=O)O)c3oc2c1C [5,6 MEXAA, 5,6 dimethylxanthemone-4-acetic acid]
[2]
  nitric oxide synthase expression in the tumor on biopsy: increase in nitric oxide synthase expression in the tumor

## COC(=O)[C@@H](N)CCCNC(=N)N[N+](=O)[O-] [L-NAME, L-nitroarginine, methyl ester]
[3]
  improvement / consciousness: regains consciousness
[4]
  inhibition at 2000 µM: > 90%
[5]; over the day
  symptoms: symptoms improve over the day
[5]; increases from 60, over the day
  arteriolar PO2: 85 mm Hg
[6]
  protection from paraquat toxicity (LDH release): dose-dependent protection from paraquat toxicity
[7]; 0.5 milligrams per kilogram per minute, two weeks, from 35%
  ejection fraction on L-NAME: 50%
[8]
  effect on paraquat-stimulated NADPH oxidation: completely inhibited paraquat-stimulated NADPH oxidation
  effect on basal NADPH oxidation: little effect on basal NADPH oxidation
[9]; [15]
  symptoms of stroke: symptoms do not improve
[9]; L-NAME 0.1 milligram per kilogram per minute IV
  blood pressure during L-NAME: 220/110

## CNC(=N)NCCC[C@H](N)C(=O)O [L-NMMA, L-N-methylarginine]
[3]
  improvement / consciousness: without improvement
[6]
  protection from paraquat toxicity (LDH release): not L-NMMA, produced a dose-dependent protection from paraquat toxicity
[8]
  effect on paraquat-stimulated NADPH oxidation: partially blocked paraquat-induced NADPH oxidation
  effect on basal NADPH oxidation: small increase in basal NADPH oxidation
[10]; L-NMMA infusion 10 mg/kg/hr.
  pulmonary hypertension and cardiac output: profound pulmonary hypertension and a fall in cardiac output
[11]
  weaning from the ventilator: weaned from the ventilator over the following day

## COC(=O)[C@@](N)(CCCNC(=N)N[N+](=O)[O-])CCO[N+](=O)[O-] [NO-derivatized L-NAME]
[10]; [16]
  cardiac output: Cardiac output normalizes
  pulmonary pressure: Pulmonary pressure normalizes
[10]; 0.1 mg/kg/minute, 70/50 at presentation
  blood pressure: 100/80
[9]; [15]
  symptoms of stroke: symptoms of confusion abate and motion returns to the arm
[9]; 0.1 milligram per kilogram per minute IV, from 220/110
  blood pressure after switch to NO derivatized L-NAME: 170/100

## COc1cccc2c1C(=O)c1c(O)c3c(c(O)c1C2=O)C[C@@](O)(C(=O)CO)C[C@@H]3O[C@H]1C[C@H](N)[C@H](O)[C@H](C)O1 [adriamycin]
[7]; standard regimen
  adverse effect of adriamycin: light sensitivity and shortness of breath
[7]; standard regimen, echocardiogram
  ejection fraction after adriamycin: 35%
[12]; adriamycin after temperature-sensitive liposome encapsulated nitric oxide synthase released by local heat, six cycles
  tumor regression: the tumor is shown to regress after six cycles of therapy
[12]; standard regimen including adriamycin
  tumor response to adriamycin alone: The tumor fails to respond

## c1cc[n+]2c(c1)-c1cccc[n+]1CC2 [diquat]
[12]; diquat 2 mg per day for six days after liposome encapsulated nitric oxide synthase
  tumor regression: The tumor is shown to regress

## nitric oxide [NO]
[13]
  cell killing / amelioration of toxicity, conclusion: toxicity can be ameliorated by putting NO back into the system
[14]
  effect on exogenously added NO-induced relaxation: NO still works in a system where NO is inhibited and superoxide is generated
